Experimental data from publication PMC12290673, “Antileishmanial and Antitoxoplasmal Activities of 1,4-Dihydropyridines” (ACS Omega, 2025).
Where two headings read alike, the source gives them in different places.

What was measured:
L. major promastigotes = assay: Activity against L. major promastigotes (MTT, 72 h); assay type: cell-based, Leishmania major; settings: mean ± SD, read-out: EC50 L. major prom
Experimental: (§1) L. major promastigotes were isolated and maintained according to a described method. BALB/c mice were injected at the hind footpads with 1 × 10^6 L. major metacyclic promastigotes. L. major amastigotes were collected from the infected mice. After 8 weeks had elapsed since inoculation, Schneider’s medium (Invitrogen, USA) containing antibiotics and 10% FBS was used to transform isolated amastigotes into promastigotes by incubation at 26 °C. Amastigote-derived promastigotes with less than five in vitro passages were only used for infection.
To assess the activity of the compounds against L. major promastigotes, 10^6 promastigotes/mL were cultured in 96-well plates in Schneider’s medium with 10% FBS. Then, the compounds or amphotericin B (AmB) were added to obtain the final concentrations (50, 25, 12.5, 6.25, 3.13, 1.65, 0.75, or 0.37 μg mL^–1). Negative control wells contained cultures with DMSO (1%) only. Plates were incubated at 26 °C for 72 h to evaluate the antiproliferative effect. The colorimetric MTT method was used to count viable promastigotes under a microplate absorbance spectrophotometer (xMark, Bio-Rad, USA) at 570 nm. The experiment was performed in triplicate.

L. major amastigotes = assay: Activity against L. major amastigotes in peritoneal macrophages (percentage of infected macrophages, Giemsa, 72 h); assay type: cell-based, Leishmania major; settings: intracellular amastigotes, mean ± SD, read-out: EC50 L. major ama
Experimental: as §1
(§2) Female BALB/c mouse peritoneal macrophages (6–8 weeks old) were used to culture L. major amastigotes to assess the activity of the compounds against amastigotes. Briefly, 1 mL of 3% Brewer’s thioglycollate medium/mouse was injected into the peritoneal cavity. After 4 days, the abdominal skin was removed to expose the peritoneal wall. Then, 3 mL of RPMI 1640 medium was injected before cells were collected by aspiration, whereupon 96-well plates containing RPMI 1640 medium with 10% FBS were used to culture 5 × 10^4 cells/well, which were incubated at 37 °C under 5% CO2 for 4 h. After washing with PBS, RPMI 1640 medium containing 5 × 10^5 promastigotes were added to each well. Next, the cells were incubated at 37 °C under humidified 5% CO2 for 24 h to enhance infection and differentiation of amastigotes. Washing with PBS several times removed free promastigotes. Fresh complete RPMI 1640 medium containing one of the tested compounds or AmB at the desired final concentration (50, 25, 12.5, 6.25, 3.13, 1.65, 0.75, or 0.37 μg mL^–1) was added and incubated at 37 °C under a humidified 5% CO2 atmosphere for 72 h. DMSO (1%), only in complete RPMI media, was used as the negative control. The percentage of infected macrophages was assessed microscopically after the medium was removed, followed by washing with PBS, fixation with methanol, and staining with Giemsa. The reading was performed in triplicate. Handling of the laboratory animals followed the instructions and rules of the Committee of Research Ethics, Deanship of Scientific Research, Qassim University, permission number 20–03–20.

Vero cells = assay: Cytotoxicity assay (MTT), Vero cells; assay type: cell-based, African Green Monkey; settings: Chlorocebus sabaeus, 72 h, mean ± SD
Experimental: (§3) The MTT colorimetric assay was conducted to assess the cytotoxicity of the compounds according to a method described previously. Briefly, Vero cells or macrophages were cultured in 96-well plates (5 × 10^3 cells/well/200 μL) in RPMI 1640 medium with 10% FBS at 37 °C and under 5% CO2 for 24 h. Thereafter, PBS was used to wash the cells. Then, the compounds in RPMI complete medium with 10% FBS (at varying concentrations of 50, 25, 12.5, 6.25, 3.13, 1.65, 0.75, or 0.37 μg mL^–1) were added to 96-well plates and incubated for 72 h. Cells treated with a medium containing only DMSO (1%) were used as the negative control. After washing, MTT (1 mg mL^–1 in RPMI 1640 medium) was added to each well. The cells were incubated for 4 h, and the supernatant was removed. Next, 150 μL of DMSO was added, and a microplate absorbance spectrophotometer was applied for colorimetric analysis (λ = 540 nm). Cytotoxic effects were expressed by IC50 values (concentration that caused a 50% reduction of viable cells). The experiment was performed in triplicate.

macrophages = assay: Cytotoxicity assay (MTT), macrophages; assay type: cell-based, BALB/c mouse; settings: Mus musculus, Macrophage; 72 h, mean ± SD; read-out: IC50 macro
Experimental: as §2, §3

[1] = system: T. gondii tachyzoites (RH strain); assay: Anti-Toxoplasma activity (infection index in Vero cells, 72 h); assay type: cell-based, Toxoplasma gondii; settings: mean ± SD
Experimental: Tachyzoites of the T. gondii RH strain were cultivated in Vero cells according to a published method. Complete RPMI 1640 medium (Invitrogen, USA) with 10% fetal bovine serum (FBS, Invitrogen, USA) was used to culture Vero cells in 96-well plates (5 × 10^3 cells/well in 200 μL of medium), which were incubated at 37 °C and under 5% CO2 for 24 h. This was followed by washing with phosphate-buffered saline (PBS) to remove the medium. Then, RPMI 1640 medium with 2% FBS containing T. gondii tachyzoites (RH strain) at a ratio of 5 (parasite): 1 (Vero cells) was added. After incubation at 37 °C and under 5% CO2 for 5 h, the cells were washed with PBS and overlaid with medium containing one of the tested compounds or atovaquone (ATO) at 50, 25, 12.5, 6.25, 3.13, 1.65, 0.75, or 0.37 μg mL^–1.
After incubation at 37 °C and under 5% CO2 for 72 h, the cells were stained with 1% toluidine before being examined under an inverted photomicroscope (MCD-400, Leica, Japan) to determine the T. gondii infection index (number of infected cells from 200 tested cells). The experiment was performed in triplicate.

Row | SMILES | EC50 (L. major promastigotes; Leishmania major) | EC50 (L. major amastigotes; Leishmania major) | EC50 (L. major amastigotes) | EC50 (L. major promastigotes) | IC50 (Vero cells) | IC50 (macrophages) | EC50 ([1]; Toxoplasma gondii, Vero) | EC50 [1]
1 | CCOC(=O)C1=C(C)NC2=C(C(=O)CC(C)(C)C2)C1c1ccc(OCc2ccccc2)cc1 (racemic) [Compound 4, (±)-ethyl 4-(4-(benzyloxy)phenyl)-2,7,7-trimethyl-5-oxo-1,4,5,6,7,8-hexahydroquinoline-3-carboxylate] | > 46.7 µM | 23.3 ± 3.4 µM | – | – | 17.5 ± 3 µM | 25.1 ± 3.7 µM | 3.1 ± 0.4 µM | –
2 | CCOC(=O)C1=C(C)NC2=C(C(=O)CC(C)(C)C2)C1c1ccccc1[N+](=O)[O-] (racemic) [Compound 9, (±)-ethyl 2,7,7-trimethyl-4-(2-nitrophenyl)-5-oxo-1,4,5,6,7,8-hexahydroquinoline-3-carboxylate] | > 58.2 µM | 13.7 µM | 10.6 ± 2.1 µM | – | 4.5 ± 0.7 µM | 12 ± 1.9 µM | 12 ± 1.9 µM | –
3 | C[C@@H]1[C@H](O)[C@@H](C)/C=C/C=C/C=C/C=C/C=C/C=C/C=C/[C@H](O[C@@H]2O[C@H](C)[C@@H](O)[C@H](N)[C@@H]2O)C[C@@H]2O[C@](O)(C[C@@H](O)C[C@@H](O)[C@H](O)CC[C@@H](O)C[C@@H](O)CC(=O)O[C@H]1C)C[C@H](O)[C@H]2C(=O)O [AmB, amphotericin B, reference compound] | – | – | – | – | 10.3 ± 1.2 µM | – | – | –
4 | CCOC(=O)C1=C(C)NC2=C(C(=O)CC(C)(C)C2)C1c1ccccc1 (stereo not shown) [Compound 1] | > 61.3 µM | > 61.3 µM | – | – | > 61.3 µM | > 61.3 µM | > 61.3 µM | –
5 | CCOC(=O)C1=C(C)NC2=C(C(=O)CC(C)(C)C2)C1c1ccc(N(C)C)cc1 (stereo not shown) [Compound 5] | > 54.4 µM | > 54.4 µM | – | – | 49.4 ± 8.8 µM | 49.9 ± 7.4 µM | 29.5 ± 4.1 µM | –
6 | CCOC(=O)C1=C(C)NC2=C(C(=O)CC(C)(C)C2)C1c1cccc(Cl)c1 (stereo not shown) [Compound 8] | > 55.6 µM | > 55.6 µM | – | – | > 55.6 µM | > 55.6 µM | > 55.6 µM | –
7 | CCOC(=O)C1=C(C)NC2=C(C(=O)CC(C)(C)C2)C1c1cccc([N+](=O)[O-])c1 (stereo not shown) [Compound 10] | > 54.1 µM | 26.3 ± 3.7 µM | – | – | 10.7 ± 2.1 µM | 24.5 ± 3.6 µM | 16.4 ± 2.5 µM | –
8 | CCOC(=O)C1=C(C)NC2=C(C(=O)CC(C)(C)C2)C1c1ccc(O)c(OC)c1 (stereo not shown) [Compound 11] | > 54 µM | > 54 µM | – | – | 45.1 ± 7.9 µM | 48 ± 8.1 µM | 26.5 ± 3.6 µM | –
9 | CCOC(=O)C1=C(C)NC2=C(C(=O)CC(C)(C)C2)C1c1ccco1 (stereo not shown) [Compound 15] | < 50 µM | > 51.3 µM | – | 40 ± 6.4 µM | > 51.3 µM | > 51.3 µM | > 51.3 µM | –
10 | CCOC(=O)C1=C(C)NC2=C(C(=O)CC(C)(C)C2)C1c1cccs1 (stereo not shown) [Compound 16] | > 49.3 µM | 31.8 ± 5.4 µM | – | – | 12.6 ± 2.1 µM | 29.9 ± 5.1 µM | 8.1 ± 1.3 µM | –

More lines, main results first:

Row | EC50 (L. major promastigotes; Leishmania major) | EC50 (L. major amastigotes; Leishmania major) | EC50 (L. major amastigotes) | EC50 (L. major promastigotes) | SMILES | IC50 (Vero cells) | IC50 (macrophages) | EC50 ([1]; Toxoplasma gondii, Vero) | EC50 [1]
11 | > 58.8 µM | > 58.8 µM | – | – | CCOC(=O)C1=C(C)NC2=C(C(=O)CC(C)(C)C2)C1c1ccc(C)cc1 (stereo not shown) [Compound 2] | 52.9 ± 9.8 µM | 47.8 ± 7.6 µM | > 58.8 µM | –
12 | > 56.3 µM | > 56.3 µM | – | – | CCOC(=O)C1=C(C)NC2=C(C(=O)CC(C)(C)C2)C1c1ccc(OC)cc1 (stereo not shown) [Compound 3] | 49.8 ± 8.9 µM | 38.7 ± 6.8 µM | > 56.3 µM | –
13 | > 49.7 µM | > 49.7 µM | – | – | CCOC(=O)C1=C(C)NC2=C(C(=O)CC(C)(C)C2)C1c1ccc(Br)cc1 (stereo not shown) [Compound 6] | 17.4 ± 2.9 µM | 23.4 ± 3.5 µM | 23.4 ± 3.5 µM | –
14 | > 63.1 µM | > 63.1 µM | – | – | CCOC(=O)C1=C(C)NC(C)=C(C(=O)OCC)C1c1ccccc1 [Compound 17] | 60.1 ± 10.6 µM | > 63.1 µM | < 50 µM | 49.8 ± 6.5 µM
15 | > 57.9 µM | > 57.9 µM | – | – | CCOC(=O)C1=C(C)NC(C)=C(C(=O)OCC)C1c1ccc(OC)cc1 [Compound 18] | 45.4 ± 7.8 µM | > 57.9 µM | > 57.9 µM | –
16 | > 47.8 µM | > 47.8 µM | – | – | CCOC(=O)C1=C(C)NC(C)=C(C(=O)OCC)C1c1ccc(OCc2ccccc2)cc1 [Compound 19] | 33.5 ± 6.2 µM | 43.4 ± 7.5 µM | > 47.8 µM | –
